Assay results reported in US9611277B2 (Janssen Pharmaceutica NV, priority 2013, dated 2017).

Key:
[1] = biological target: rat orexin 1 receptor (Rattus norvegicus, UniProt P56718); assay: Rat orexin 1 receptor radioligand binding; conditions: rat orexin 1 receptor; averages of 2-20 runs; read-out: rOX1 Ki
Summary of the method: (§1)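 Competition binding with the tritiated thiazolyl-pyrrolidinyl-methanone radioligand in PBS on homogenized rat or human OX1R-expressing cell suspensions, ≤0.1% DMSO; nonspecific binding defined with 10 μM almorexant. Bound radioactivity read by scintillation after filtration; IC50 from one-site competition fit, converted to Ki using pre-determined radioligand Kd.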

[2] = biological target: human orexin 2 receptor (Homo sapiens (Human), UniProt O43614); assay: Human orexin 2 receptor radioligand binding; conditions: human orexin 2 receptor; averages of 2-20 runs; read-out: hOX2 Ki
Chain of human orexin 2 receptor (O43614 whole entry): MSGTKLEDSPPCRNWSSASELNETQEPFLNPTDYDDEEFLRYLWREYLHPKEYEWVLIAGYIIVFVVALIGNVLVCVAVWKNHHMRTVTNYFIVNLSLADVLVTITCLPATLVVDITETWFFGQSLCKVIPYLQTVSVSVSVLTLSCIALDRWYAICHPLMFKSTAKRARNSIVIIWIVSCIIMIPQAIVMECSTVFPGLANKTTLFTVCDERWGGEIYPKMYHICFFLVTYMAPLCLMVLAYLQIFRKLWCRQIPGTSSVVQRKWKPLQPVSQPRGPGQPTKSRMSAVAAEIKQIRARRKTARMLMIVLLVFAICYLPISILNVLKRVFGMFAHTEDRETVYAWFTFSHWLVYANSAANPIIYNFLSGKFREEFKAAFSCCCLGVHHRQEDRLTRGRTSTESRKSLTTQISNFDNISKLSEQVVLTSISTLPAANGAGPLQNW
Summary of the method: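 HEK293 cells stably expressing human OX2 receptor, homogenized, incubated with [3H]-EMPA and compounds (DMSO ≤0.1%); nonspecific binding with 10 μM almorexant. Filter-bound radioactivity counted by scintillation; IC50 from one-site competition fit of triplicates, Ki from IC50 and predetermined radioligand Kd, averaged over 2-20 runs.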

[3] = biological target: human orexin 1 receptor (Homo sapiens, UniProt O43613); assay: Human orexin 1 receptor radioligand binding; conditions: human orexin 1 receptor; averages of 2-20 runs; read-out: hOX1 Ki
Summary of the method: as §1

SMILES: O=C(c1cccc(F)c1-c1ncccn1)N1C[C@H]2C[C@@H](Nc3ccc(C(F)(F)F)nn3)[C@@H]1C2 [Example 245, (3-fluoro-2-(pyrimidin-2-yl)phenyl)((1S,4S,6R)-6-((6-(trifluoromethyl)pyridazin-3-yl)amino)-2-azabicyclo[2.2.1]heptan-2-yl)methanone]
- Ki [1]: 65 nM
- Ki [2]: 4300 nM
- Ki [3]: 53 nM

SMILES: O=C(c1ccccc1-n1nccn1)N1C[C@H]2C[C@@H](Nc3ccc(C(F)(F)F)nc3)[C@@H]1C2 [Example 246, (2-(2H-1,2,3-triazol-2-yl)phenyl)((1S,4S,6R)-6-((6-(trifluoromethyl)pyridin-3-yl)amino)-2-azabicyclo[2.2.1]heptan-2-yl)methanone]
- Ki [1]: 194 nM
- Ki [2]: 843 nM
- Ki [3]: 155 nM

SMILES: O=C(c1cccc(F)c1-c1ncccn1)N1C[C@H]2C[C@@H](Nc3ccc(C(F)(F)F)nc3)[C@@H]1C2 [Example 247, (3-fluoro-2-(pyrimidin-2-yl)phenyl)((1S,4S,6R)-6-((6-(trifluoromethyl)pyridin-3-yl)amino)-2-azabicyclo[2.2.1]heptan-2-yl)methanone]
- Ki [1]: 26 nM
- Ki [2]: 939 nM
- Ki [3]: 31 nM

SMILES: O=C(c1cc(F)ccc1-c1ncccn1)N1C[C@@H]2CC[C@H]1[C@H](Oc1ccc(C(F)(F)F)cn1)C2 [Example 260, (5-fluoro-2-(pyrimidin-2-yl)phenyl)((1S,4R,6R)-6-((5-(trifluoromethyl)pyridin-2-yl)oxy)-2-azabicyclo[2.2.2]octan-2-yl)methanone]
- Ki [1]: 11 nM
- Ki [2]: 294 nM
- Ki [3]: 10 nM

SMILES: O=C(c1c(F)cccc1-c1ncccn1)N1C[C@@H]2CC[C@H]1[C@H](Oc1ccc(C(F)(F)F)cn1)C2 [Example 261, (2-fluoro-6-(pyrimidin-2-yl)phenyl)((1S,4R,6R)-6-((5-(trifluoromethyl)pyridin-2-yl)oxy)-2-azabicyclo[2.2.2]octan-2-yl)methanone]
- Ki [1]: 21 nM
- Ki [2]: 400 nM
- Ki [3]: 9 nM

SMILES: O=C(c1cccc(F)c1-c1ncc(F)cn1)N1C[C@@H]2CC[C@H]1[C@H](Oc1ccc(C(F)(F)F)cn1)C2 [Example 263, (3-fluoro-2-(5-fluoropyrimidin-2-yl)phenyl)((1S,4R,6R)-6-((5-(trifluoromethyl)pyridin-2-yl)oxy)-2-azabicyclo[2.2.2]octan-2-yl)methanone]
- Ki [1]: 11 nM
- Ki [2]: 1100 nM
- Ki [3]: 9 nM

SMILES: Cc1cnc(C(=O)N2C[C@@H]3CC[C@H]2[C@H](Oc2ccc(C(F)(F)F)cn2)C3)c(-c2ncccn2)c1 [Example 264, (5-methyl-3-(pyrimidin-2-yl)pyridin-2-yl)((1S,4R,6R)-6-((5-(trifluoromethyl)pyridin-2-yl)oxy)-2-azabicyclo[2.2.2]octan-2-yl)methanone]
- Ki [1]: 10 nM
- Ki [2]: > 10000 nM
- Ki [3]: 16 nM

SMILES: Cc1ccc(-c2ncccn2)c(C(=O)N2C[C@@H]3CC[C@H]2[C@H](Oc2ccc(C(F)(F)F)cn2)C3)n1 [Example 265, (6-methyl-3-(pyrimidin-2-yl)pyridin-2-yl)((1S,4R,6R)-6-((5-(trifluoromethyl)pyridin-2-yl)oxy)-2-azabicyclo[2.2.2]octan-2-yl)methanone]
- Ki [1]: 14 nM
- Ki [2]: 306 nM
- Ki [3]: 19 nM

SMILES: O=C(c1cccc(F)c1-c1ncccn1)N1C[C@@H]2CC[C@H]1[C@H](Oc1ncc(C(F)(F)F)cc1F)C2 [Example 266, (3-fluoro-2-(pyrimidin-2-yl)phenyl)((1S,4R,6R)-6-((3-fluoro-5-(trifluoromethyl)pyridin-2-yl)oxy)-2-azabicyclo[2.2.2]octan-2-yl)methanone]
- Ki [1]: 11 nM
- Ki [2]: 654 nM
- Ki [3]: 11 nM

SMILES: Cc1ccc(O[C@@H]2C[C@H]3CC[C@@H]2N(C(=O)c2cccc(F)c2-c2ncccn2)C3)nc1 [Example 267, (3-fluoro-2-(pyrimidin-2-yl)phenyl)((1S,4R,6R)-6-((5-methylpyridin-2-yl)oxy)-2-azabicyclo[2.2.2]octan-2-yl)methanone]
- Ki [1]: 26 nM
- Ki [2]: 1100 nM
- Ki [3]: 19 nM

SMILES: O=C(c1ccccc1-n1nccn1)N1C[C@@H]2CC[C@H]1[C@H](Oc1ccc(Br)cn1)C2 [Example 268, (2-(2H-1,2,3-triazol-2-yl)phenyl)((1S,4R,6R)-6-((5-bromopyridin-2-yl)oxy)-2-azabicyclo[2.2.2]octan-2-yl)methanone]
- Ki [1]: 5 nM
- Ki [2]: 200 nM
- Ki [3]: 4 nM

SMILES: O=C(c1cccc(F)c1-c1ncccn1)N1C[C@@H]2CC[C@H]1[C@H](Oc1ccc(Br)cn1)C2 [Example 269, ((1S,4R,6R)-6-((5-bromopyridin-2-yl)oxy)-2-azabicyclo[2.2.2]octan-2-yl)(3-fluoro-2-(pyrimidin-2-yl)phenyl)methanone]
- Ki [1]: 4 nM
- Ki [2]: 363 nM
- Ki [3]: 5 nM

SMILES: O=C(c1ccccc1-n1nccn1)N1C[C@@H]2CC[C@H]1[C@H](Oc1ccc(Cl)cn1)C2 [Example 270, (2-(2H-1,2,3-triazol-2-yl)phenyl)((1S,4R,6R)-6-((5-chloropyridin-2-yl)oxy)-2-azabicyclo[2.2.2]octan-2-yl)methanone]
- Ki [1]: 4 nM
- Ki [2]: 200 nM
- Ki [3]: 3 nM

SMILES: O=C(c1cccc(F)c1-c1ncccn1)N1C[C@@H]2CC[C@H]1[C@H](Oc1ccc(Cl)cn1)C2 [Example 271, ((1S,4R,6R)-6-((5-chloropyridin-2-yl)oxy)-2-azabicyclo[2.2.2]octan-2-yl)(3-fluoro-2-(pyrimidin-2-yl)phenyl)methanone]
- Ki [1]: 7 nM
- Ki [2]: 452 nM
- Ki [3]: 8 nM

SMILES: O=C(c1ccccc1-c1ncc(F)cn1)N1C[C@@H]2CC[C@H]1[C@H](Oc1cnc(C(F)(F)F)cn1)C2 [Example 272, (2-(5-fluoropyrimidin-2-yl)phenyl)((1S,4R,6R)-6-((5-(trifluoromethyl)pyrazin-2-yl)oxy)-2-azabicyclo[2.2.2]octan-2-yl)methanone]
- Ki [1]: 23 nM
- Ki [2]: 1400 nM
- Ki [3]: 11 nM

SMILES: O=C(c1cccc(F)c1-c1ncc(F)cn1)N1C[C@@H]2CC[C@H]1[C@H](Oc1cnc(C(F)(F)F)cn1)C2 [Example 273, (3-fluoro-2-(5-fluoropyrimidin-2-yl)phenyl)((1S,4R,6R)-6-((5-(trifluoromethyl)pyrazin-2-yl)oxy)-2-azabicyclo[2.2.2]octan-2-yl)methanone]
- Ki [1]: 44 nM
- Ki [2]: 3800 nM
- Ki [3]: 16 nM

SMILES: O=C(c1ccc(F)cc1-c1ncccn1)N1C[C@@H]2CC[C@H]1[C@H](Nc1cnc(C(F)(F)F)cn1)C2 [Example 277, (4-fluoro-2-(pyrimidin-2-yl)phenyl)((1S,4R,6R)-6-((5-(trifluoromethyl)pyrazin-2-yl)amino)-2-azabicyclo[2.2.2]octan-2-yl)methanone]
- Ki [1]: 17 nM
- Ki [2]: 998 nM
- Ki [3]: 15 nM

SMILES: O=C(c1cc(F)ccc1-c1ncccn1)N1C[C@@H]2CC[C@H]1[C@H](Nc1cnc(C(F)(F)F)cn1)C2 [Example 278, (5-fluoro-2-(pyrimidin-2-yl)phenyl)((1S,4R,6R)-6-((5-(trifluoromethyl)pyrazin-2-yl)amino)-2-azabicyclo[2.2.2]octan-2-yl)methanone]
- Ki [1]: 14 nM
- Ki [2]: 243 nM
- Ki [3]: 7 nM

SMILES: O=C(c1c(F)cccc1-c1ncccn1)N1C[C@@H]2CC[C@H]1[C@H](Nc1cnc(C(F)(F)F)cn1)C2 [Example 279, (2-fluoro-6-(pyrimidin-2-yl)phenyl)((1S,4R,6R)-6-((5-(trifluoromethyl)pyrazin-2-yl)amino)-2-azabicyclo[2.2.2]octan-2-yl)methanone]
- Ki [1]: 11 nM
- Ki [2]: 177 nM
- Ki [3]: 13 nM

SMILES: O=C(c1ccccc1-c1ncccn1)N1C[C@@H]2CC[C@H]1[C@H](Nc1cnc(C(F)(F)F)cn1)C2 [Example 280, (2-(pyrimidin-2-yl)phenyl)((1S,4R,6R)-6-((5-(trifluoromethyl)pyrazin-2-yl)amino)-2-azabicyclo[2.2.2]octan-2-yl)methanone]
- Ki [1]: 7 nM
- Ki [2]: 189 nM
- Ki [3]: 4 nM

SMILES: O=C(c1cccc(F)c1-c1ncccn1)N1C[C@@H]2CC[C@H]1[C@H](Oc1ncc(C(F)(F)F)cc1Cl)C2 [Example 281, ((1S,4R,6R)-6-((3-chloro-5-(trifluoromethyl)pyridin-2-yl)oxy)-2-azabicyclo[2.2.2]octan-2-yl)(3-fluoro-2-(pyrimidin-2-yl)phenyl)methanone]
- Ki [1]: 5 nM
- Ki [2]: 336 nM
- Ki [3]: 19 nM

SMILES: Cc1cnc(C(=O)N2C[C@@H]3CC[C@H]2[C@H](Oc2cnc(C(F)(F)F)cn2)C3)c(-c2ncccn2)c1 [Example 282, (5-methyl-3-(pyrimidin-2-yl)pyridin-2-yl)((1S,4R,6R)-6-((5-(trifluoromethyl)pyrazin-2-yl)oxy)-2-azabicyclo[2.2.2]octan-2-yl)methanone]
- Ki [1]: 81 nM
- Ki [2]: > 10000 nM
- Ki [3]: 65 nM

SMILES: Cc1cnc(C(=O)N2C[C@@H]3CC[C@H]2[C@H](Oc2ncc(C(F)(F)F)cc2F)C3)c(-c2ncccn2)c1 [Example 283, ((1S,4R,6R)-6-((3-fluoro-5-(trifluoromethyl)pyridin-2-yl)oxy)-2-azabicyclo[2.2.2]octan-2-yl)(5-methyl-3-(pyrimidin-2-yl)pyridin-2-yl)methanone]
- Ki [1]: 21 nM
- Ki [2]: > 10000 nM
- Ki [3]: 27 nM

SMILES: O=C(c1cccc(F)c1-c1ncccn1)N1C[C@H]2C[C@@H](Oc3ncc(Cl)cn3)[C@@H]1C2 [Example 284, ((1S,4R,6R)-6-((5-chloropyrimidin-2-yl)oxy)-2-azabicyclo[2.2.1]heptan-2-yl)(3-fluoro-2-(pyrimidin-2-yl)phenyl)methanone]
- Ki [1]: 45 nM
- Ki [2]: 5600 nM
- Ki [3]: 47 nM
